Data taken from patent US4873232A, “Novel use for carbamoyl benzoates” (Syntex, priority 1986, dated 1989).
Read-outs that look alike come from different tables or passages of the source.

Experiments:
[1] = tested on: Experimental Allergic Encephalomyelitis in Rat; test: Experimental Allergic Encephalomyelitis in rat; assay type: in vivo, rat (female LEW/Crl BR); conditions: for Body Wt.: day 17
Description: 3. Experimental allergic encephalomyelitis in the rat. […] A mixture of syngeneic spinal cord homogenate in Freund's Complete Adjuvant injected subcutaneously into the rat induces an […] response directed against the myelin covering the nerves of the central nervous system. […] These symptoms result from attack of immune cells on the nerves with subsequent destruction and loss of ability to transmit the nervous impulses necessary for controlling muscle function. […] This is consistent with the general immuno-suppressive effects of this drug. Corticosteroid treatment also prevents the appearance of paralytic symptoms, but the dose of corticosteroid required is such that the corticosteroid itself causes weight loss greater than that produced by the disease alone. In contrast to their action in Adjuvant-inducted Arthritis in the rat, aspirin-like drugs are completely ineffective in preventing the symptoms and weight loss of experimental allergic encephalomyelitis.
Experimental Allergic Encephalomyelitis in Rat
Method: Test for Inhibition of Experimental Allergic Encephalomyelitis Induced in Rats
Female LEW/Crl BR rats weighing 125-135 g were randomly assigned to treatment groups of ten animals. Experimental allergic encephalomyelitis was induced by injecting into the right hind paw of each animal 0.1 ml of an emulsion containing 15 mg (wet weight) of syngeneic spinal cord tissue, 0.06 ml of Freund's Incomplete Adjuvant (Difco), 0.04 ml of sterile 0.9% saline and 0.2 mg of heat-killed, dried Mycobacterium butyricum (Difco). Test materials prepared as solutions or suspensions in aqueous carboxymethyl cellulose vehicle were administered orally each day for 16 days, starting on the day of injection. Animals were individually identified and weighed on day one, and again on day 17.

[2] = tested on: Carrageenan-induced paw edema in the rat; test: Carrageenan-induced paw edema in rat; assay type: in vivo, rat (female albino, Sim:(SD)fbr); conditions: one hour prior to carrageenan
Description: 1. Carrageenan-induced paw edema in the rat. […] A solution of carrageenan injected into the foot pad of a rat causes reddening, swelling and pain which is maximal three to six hours after administration and then resolves. […] Immuno-suppressive agents are not effective under these circumstances.
Carrageenan-induced Paw Edema in Rat
Method: Test for Determining Anti-Inflammatory Activity Utilizing Carrageenan-Induced Paw Inflammation in Rats
The method used was basically that of Winter, et al. (See, Winter, C.A., Risley, E.A., and Nuss, G.W.: Carrageenan-induced edema in hind paw of the rat as an assay for anti-inflammatory drugs, Proc. Soc. Exp. Biol. Med. 111:544-547, 1962.) Female albino rats (Sim: (SD)fbr) weighing 80-90 g received the test material p.o. in 1 ml aqueous vehicle at hour zero (0 hr). One hour later (hr 1), 0.05 ml of a 1% solution (in aqueous 0.9% NaCl) or carrageenan was injected into the right hind paw to inflame the paw. The rats were sacrificed at hour 4, at which time both hind paws were removed and individually weighed. The percent increase in the weight of the inflamed paw over that of the opposite non-inflamed paw was calculated.

[3] = tested on: Adjuvant-induced Arthritis in Rat; test: Adjuvant-induced Arthritis in rat; assay type: in vivo, rat (female Hla:(SD) BR); conditions: oral
[4] = Ability to cause gastro-intestinal erosion in rats; set-up: species or system rat (male Lai:COX (SD)); conditions: in vivo, rat
Description: Method: Test for Ability to Cause Gastro-Intestinal Erosion in Rats
Male Lai: COX (SD) rats weighing 200-250 g were acclimated for one week under standard laboratory conditions. Each animal was individually identified and body weights were determined on the first day of the test and again at autopsy. The test materials, suspended in aqueous carboxymethyl cellulose vehicle, were administered orally once daily in a volume of 1.0 ml per 100 g body weight for seven consecutive days. Food was withdrawn from the animals following the last dose and the animals were sacrificed 24 hours later. At necropsy, the stomach and intestines were removed and observed for lesions. […] The highest test dose level producing no detectable lesions is reported.

[5] = tested on: Gastro-Intestinal Erosion in Rats; conditions: background, in words; cited from earlier work
[6] = tested on: Adjuvant-induced Arthritis in Rat; conditions: daily administration of appropriate doses, background; cited from earlier work
[7] = tested on: Experimental Allergic Encephalomyelitis in Rat; conditions: daily treatment, background; cited from earlier work
[8] = oral 10 mg/kg daily for 16 days
[9] = oral dose 100 mg/kg, * = not significant
[10] = oral 50 mg/kg daily for 16 days
[11] = oral once daily for seven days, read-out: Minimum Dose causing G.I. Erosions
[12] = oral dose 10 mg/kg, * = not significant
[13] = oral dose 30 mg/kg, * = not significant

SMILES: Cc1cccc(NC(=O)OCc2ccccc2)c1C(=O)O [2-benzyloxycarbonylamino-6-methylbenzoic acid]
- Body Wt. [1, 8]: 146 ± 3.6 gm
- Inhibition of Hind Paw Weight Increase [2, 9]: 10

SMILES: CCOC(=O)Nc1ccccc1C(=O)O [2-Ethoxycarbonyl-aminobenzoic acid, 2-ethoxycarbonylaminobenzoic acid]
- Body Wt. ([1]; oral 2 mg/kg daily for 16 days): 150 ± 4.2 gm
- Body Wt. [1, 8]: 162 ± 3.4 gm
- Body Wt. [1, 10]: 151 ± 4.4 gm

SMILES: COc1cc(NC(=O)OCc2ccccc2)c(C(=O)O)cc1OC [2-benzyloxycarbonylamino-4,5-dimethoxybenzoic acid]
- Body Wt. ([1]; oral 2 mg/kg daily for 16 days): 142 ± 5.3 gm
- Body Wt. [1, 8]: 144 ± 3.9 gm

SMILES: O=C(Nc1ccccc1C(=O)O)OCc1ccccc1 [2-Benzyloxycarbonyl-aminobenzoic acid, 2-benzyloxycarbonylaminobenzoic acid]
- Body Wt. ([1]; oral 2 mg/kg daily for 16 days): 131 ± 3.6 gm
- Body Wt. [1, 8]: 141 ± 6.3 gm

SMILES: Cc1cccc(NC(=O)OCC(C)C)c1C(=O)O [2-isobutoxycarbonylamino-6-methylbenzoic acid]
- Inhibition of Adjuvant Arthritis ([3]; at 50 mg/kg, n.s.): 0%
- Inhibition of Hind Paw Weight Increase [2, 9]: 23
- NOAEL at 168 h [4, 11]: > 100 mg/kg/day

SMILES: CCOC(=O)Nc1cc(OC)c(OC)cc1C(=O)O [2-ethoxycarbonylamino-4,5-dimethoxybenzoic acid]
- Inhibition of Adjuvant Arthritis ([3]; at 50 mg/kg, n.s.): 0%
- Body Wt. ([1]; oral 2 mg/kg daily for 16 days): 157 ± 4.0 gm
- Body Wt. [1, 8]: 137 ± 5.7 gm
- Body Wt. [1, 10]: 154 ± 5.8 gm
- NOAEL at 168 h [4, 11]: > 100 mg/kg/day

SMILES: C[C@@H]1C[C@H]2[C@@H]3CCC4=CC(=O)C=C[C@]4(C)[C@@]3(F)[C@@H](O)C[C@]2(C)[C@@]1(O)C(=O)CO [Dexamethasone, reference compound]
- Body Wt. ([1]; oral 0.25 mg/kg daily for 16 days): 130 ± 0.4 gm
- % Animals With Paralysis ([1]; oral 0.25 mg/kg daily for 16 days, observed days 12-17): 0%
- Inhibition of Hind Paw Weight Increase ([2]; oral dose 0.1 mg/kg): 71

SMILES: CCOC(=O)Nc1cccc(C)c1C(=O)O [2-Ethoxycarbonylamino-6-methylbenzoic acid]
- Inhibition of Adjuvant Arthritis ([3]; at 50 mg/kg, n.s.): 30%
- Body Wt. ([1]; oral 5 mg/kg daily for 16 days): 164 ± 4.9 gm
- Body Wt. [1, 8]: 155 ± 3.7 gm
- Body Wt. ([1]; oral 25 mg/kg daily for 16 days): 154 ± 6.0 gm
- Inhibition of Hind Paw Weight Increase [2, 12]: 9
- Inhibition of Hind Paw Weight Increase [2, 13]: 13
- Inhibition of Hind Paw Weight Increase [2, 9]: 12
- NOAEL at 168 h [4, 11]: > 100 mg/kg/day

SMILES: Cc1cccc(N)c1C(=O)O [2-Amino-6-methylbenzoic acid, 2-amino-6-methyl-benzoic acid, reference compound]
- Inhibition of Adjuvant Arthritis ([3]; at 50 mg/kg, n.s.): 0%
- Body Wt. ([1]; oral 2 mg/kg daily for 16 days): 153 ± 5.2 gm
- Body Wt. [1, 8]: 145 ± 4.1 gm
- Body Wt. [1, 10]: 141 ± 4.0 gm
- Inhibition of Hind Paw Weight Increase [2, 12]: 5
- Inhibition of Hind Paw Weight Increase [2, 13]: 7
- Inhibition of Hind Paw Weight Increase [2, 9]: 0
- NOAEL at 168 h ([4]; po): > 250 mg/kg/day

SMILES: O=C(O)c1ccccc1Nc1cccc(C(F)(F)F)c1 [Flufenamic acid, reference compound]
- Inhibition of Adjuvant Arthritis ([3]; at 35 mg/kg): 80%
- Body Wt. ([1]; oral 30 mg/kg daily for 16 days): 135 ± 2.4 gm
- Body Wt. ([1]; oral 100 mg/kg daily for 16 days): 128 ± 2.1 gm
- Inhibition of Hind Paw Weight Increase [2, 12]: 35
- Inhibition of Hind Paw Weight Increase [2, 9]: 52
- NOAEL at 168 h ([4]; po): 35 mg/kg/day
- gastro-intestinal effects associated with aspirin-like drugs [5]: gastro-intestinal (ulcerogenic) effects

SMILES: O=P1(N(CCCl)CCCl)NCCCO1 (stereo not drawn) [cyclophosphamide]
- control of manifestations of Adjuvant-induced arthritis [6]: effectively controlled
- effect on weight loss and paralysis in experimental allergic encephalomyelitis [7]: gives protection from the weight loss and paralysis
